From patent publication US6809112B2, “Method of treating sexual disturbances” (priority 1999, dated 2004)

Columns and labels:
[1] = test system: patient with Male Orgasmic Disorder; experiment: Treatment of Male Orgasmic Disorder (Examples E, M); type: in vivo, human; settings: 3 mg/dose 0.5-1 hr before sexual activity; examined after one month; patient report
Description: A 80 kg, person has been married for 15 years. They present complaining that they have begun to have difficulty achieving an orgasm during vaginal intercourse with their spouse. On most occasions they are unable to ejaculate during sexual intercourse. Infrequently, they are able to ejaculate during sexual, but only after very prolonged vaginal intercourse. […] Their further reports that their spouse finds the prolonged intercourse that they require to ejaculate uncomfortable and has begun avoiding sexual relations. They report that they ejaculate normally when they masturbate. […] They currently take no prescription drugs. […] The patient is diagnosed as having Male Orgasmic Disorder that is acquired and situational due to psychological factors (Diagnostic and Statistical Manual of Mental Disorders, Fourth Edition, 1994). (5R)-(methylamino) -5,6-dihydro-4H-imidazo[4,5,1-ij]quinolin-2(1H)-one (Z)-2-butenedioate (1:1) is prescribed at 3 mg/dose to be taken 0.5-1 hr before the patient intends to engage in sexual activity. The patient is instructed that they may use the drug on a daily basis, if this is the intended frequency of sexual activity. The patient is examined after one month. […] The patient is instructed to continue using the drug.

[2] = test system: male and female Giant Pandas; experiment: Mating of animals of commercial value (Examples F, N); type: in vivo, Giant Panda; settings: 0.05 mg of free base equivalents per kilogram of body weight in diet, one occasion; for induction of mating (treatment effect): one hour after ingesting
Description: An adult male Giant Panda on temporary loan from a foreign zoo is desired to have breed to an adult female Giant Panda which is normally resident at the zoo. Because of the commercial value of a potential off-spring it is desirable that the animals mate during the time the adult male is on loan. […] As an alternative to anesthetizing the animals for a facilitated transfer of semen between the animals, the male and female Giant Pandas have (5R)-(methylamino)-5,6-dihydro-4H-imidazo[4,5,1-ij]quinolin-2(1H)-one (Z)-2-butenedioate (II) added to their diet on one occasion. The concentration of drug in the diet is calculated to deliver 0.05 mg of free base equivalents of (5R)-(methylamino)-5,6-dihydro-4H-imidazo[4,5,1-ij]quinolin-2(1H)-one (Z)-2-butenedioate (1:1) per kilogram of body weight.

[3] = test system: patient with idiopathic epilepsy and hypogonadism, secondary to chronic carbamazepine treatment; experiment: Treatment of reduced sexual function in a person with idiopathic epilepsy (Examples G, O); type: in vivo, human; settings: 3 mg/dose 0.5 hr before sexual activity, 2-3 times per week; carbamazepine 500 mg/day; examined after one month
Protocol: A 75 kg patient has idiopathic epilepsy. They first presented with primary generalized seizures and was diagnosed with idiopathic epilepsy. They have been treated with carbamazepine. Currently they receive 500 mg/day of the drug. They have had two tonic-clonic seizures during the preceding year. The patient complains of diminished sexual interest in their spouse of 8 years. On those occasions when they attempt sexual intercourse, they are able to maintain an erection sufficient for intercourse one-third of the time. […] They report that they rarely have sexual fantasies and rarely masturbates. […] They currently take no prescription drugs other than carbamazepine. […] Plasma testosterone and sex hormone binding globulin assays are performed. The plasma testosterone level is 25 nM, which is considered normal. The plasma sex hormone binding globulin level is 55 nM, which is considered elevated compared to the normal range. The patient is diagnosed with hypogonadism, secondary to chronic carbamazepine treatment (Epilepsia 36: 366-370, 1995). (5R)-(methylamino)-5,6-dihydro-4H-imidazo[4,5,1-ij]quinolin-2(1H)-one (Z)-2-butenedioate (1:1) is prescribed at 3 mg/dose to be taken 0.5 hr before the patient intends to engage in sexual activity. The patient is instructed that they may use the drug on a daily basis, if this is the intended frequency of sexual activity. The patient is examined after one month. They report that they take the drug 2-3 times per week. […] The patient is instructed to continue with the treatment.

[4] = test system: patient with erectile dysfunction and hypoactive sexual desire disorder; experiment: Treatment of patient with erectile dysfunction and Hypoactive Sexual Desire Disorder, combination with sildenafil (Examples H, P); type: in vivo, human; settings: 3 mg/dose in combination with sildenafil (VIAGRA Tablets) 50 mg/dose, orally about 0.5 hr before sexual activity, 2-3 times per week; after one month
Description: A 70 kg patient is apparently in good health. They present complaining of a loss of sexual desire and frequent erectile dysfunction since taking an executive position in their company, six weeks previously. They report that they work long hours and feels a high degree of pressure associated with their job. They are frustrated and angry that when they take time off from work they are unable to have an intimate relationship with their spouse. They report that although they are periodically interested in initiating sexual relations, on most occasions they are unable to maintain a high level of interest sufficiently long to initiate or to adequately respond to their spouse's initiating sexual activity. […] They develop a semi-rigid erection at the beginning of sexual activity but detumescence occurs when they attempt penetration. They report that they have few erotic fantasies. They have not masturbated for the past several months. They attribute this to a lack of motivation and interest. […] (5R)-(methylamino)-5,6-dihydro-4H-imidazo[4,5,1-ij]quinolin-2(1H)-one (Z)-2-butenedioate (1:1), 3 mg/dose, and sildenafil (VIAGRA Tablets), 50 mg/dose, are both prescribed. Each is to be taken orally about 0.5 hr before the patient intends to engage in sexual activity. The patient is instructed that they may use the drug combination on a daily basis, if this is the intended frequency of sexual activity. The patient is examined after one month. They report that they take the drug combination 2-3 times per week. […] The patient is advised to continue taking the (5R)-(methylamino)-5,6-dihydro-4H-imidazo[4,5,1-ij]quinolin-2(1H)-one (Z)-2-butenedioate (1:1) for another six months as they adapt to the situational stress associated with their new job. After this time they are advised to stop taking the drug for a period of two weeks to determine whether their sexual motivation and desire have returned to the level they enjoyed prior to the change in jobs.

CN[C@@H]1Cc2cccc3[nH]c(=S)n(c23)C1 [(5R)-5-(Methylamino)-5,6-dihydro-4H-imidazo[4,5,1-ij]quinoline-2(1H)-thione]
treatment effect (quality of sexual relationship) [1]: same positive treatment effect | induction of mating (treatment effect) [2]: same positive treatment effect | treatment effect (sexual relationship) [3]: same positive treatment effect | treatment effect (sexual relationship) [4]: same positive treatment effect | melting point: 210 to 213 °C

CN[C@@H]1Cc2cccc3[nH]c(=O)n(c23)C1.O=C(O)/C=C\C(=O)O [(5R)-(methylamino)-5,6-dihydro-4H-imidazo[4,5,1-ij]quinolin-2(1H)-one (Z)-2-butenedioate (1:1)]
ejaculation during vaginal intercourse [1]: ejaculates during vaginal intercourse on all occasions | treatment effect (quality of sexual relationship) [1]: markedly improved | pregnancy and birth from the mating [2]: A pregnancy and subsequent birth of an off-spring results | induction of mating (treatment effect) [2]: the animals engage in sexual intercourse | sexual interest and initiation of sexual activity [3]: feels more interest in sex and usually initiates sexual activity with their spouse | treatment effect (sexual relationship) [3]: enjoys a normal sexual relationship | maintenance of erection [4]: no difficulty maintaining an erection to completion of sexual intercourse | sexual fantasies [4]: readily has sexual fantasies that are sustained during sexual intercourse | sexual motivation [4]: feels motivated to initiate sexual activity | treatment effect (sexual relationship) [4]: enjoys an improved sexual relationship with their partner
